Assay results from PubChem BioAssay AID1963843 (Molecular Pharmacology Branch, DTP, NCI, 2024).

Test system: 616215-338-R-J1-PDC complex spheroid viability
Assay: Anticancer human tumor 616215-338-R-J1-PDC patient-derived colon adenocarcinoma cell line growth inhibition [POLQ]
Settings: for IC50: curve of first compound; for viability, T/C: stronger effect = lower value
Method in brief: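 Patient-derived tumour cells were co-cultured with HUVEC and mesenchymal stem cells as multicellular spheroids at 37 °C. They were treated with POLQ inhibitors (novobiocin, ART-558, RP6685) alone or combined with other agents. Top concentrations were at or near clinical Cmax (otherwise 10 microM; SN-38 at 1 microM), decreasing in half-log steps.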

[1] = second compound 0.0316 µM, first compound 0.0316 µM
[2] = second compound 0.0316 µM, first compound 0.1 µM
[3] = second compound 0.0316 µM, first compound 0.316 µM
[4] = second compound 0.0316 µM, first compound 1 µM
[5] = second compound 0.0316 µM, first compound 3.16 µM
[6] = second compound 0.0316 µM, first compound 10 µM
[7] = second compound 0.1 µM, first compound 0.0316 µM
[8] = second compound 0.1 µM, first compound 0.1 µM
[9] = second compound 0.1 µM, first compound 0.316 µM
[10] = second compound 0.1 µM, first compound 1 µM
[11] = second compound 0.1 µM, first compound 3.16 µM
[12] = second compound 0.1 µM, first compound 10 µM
[13] = second compound 0.316 µM, first compound 0.0316 µM
[14] = second compound 0.316 µM, first compound 0.1 µM
[15] = second compound 0.316 µM, first compound 0.316 µM
[16] = second compound 0.316 µM, first compound 1 µM
[17] = second compound 0.316 µM, first compound 3.16 µM
[18] = second compound 0.316 µM, first compound 10 µM
[19] = second compound 1 µM, first compound 0.0316 µM
[20] = second compound 1 µM, first compound 0.1 µM
[21] = second compound 1 µM, first compound 0.316 µM
[22] = second compound 1 µM, first compound 1 µM
[23] = second compound 1 µM, first compound 3.16 µM
[24] = second compound 1 µM, first compound 10 µM
[25] = second compound 3.16 µM, first compound 0.0316 µM
[26] = second compound 3.16 µM, first compound 0.1 µM
[27] = second compound 3.16 µM, first compound 0.316 µM
[28] = second compound 3.16 µM, first compound 1 µM
[29] = second compound 3.16 µM, first compound 3.16 µM
[30] = second compound 3.16 µM, first compound 10 µM
[31] = second compound 10 µM, first compound 0.0316 µM
[32] = second compound 10 µM, first compound 0.1 µM
[33] = second compound 10 µM, first compound 0.316 µM
[34] = second compound 10 µM, first compound 1 µM
[35] = second compound 10 µM, first compound 3.16 µM
[36] = second compound 10 µM, first compound 10 µM
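Further: spheroids exposed to compounds for one week before readout.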
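Wherever viability, T/C is given: percent viability relative to DMSO vehicle wells taken as 100%.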

With CC1COCCN1c1cc(C2(S(C)(=N)=O)CC2)nc(-c2ccnc3[nH]ccc23)n1 (centres undefined) + Nc1ccc(C#CCN(C(=O)Cc2ncc(C(F)(F)F)cc2C(F)(F)F)c2ccc(F)cc2)nn1 the IC50 (second compound 0.0316 µM) was 4.98 µM, the IC50 (second compound 0.1 µM) was 5.39 µM and the IC50 (second compound 0.316 µM) was 6.77 µM. For the same compound, the IC50 (second compound 1 µM) was 5.38 µM, the IC50 (second compound 3.16 µM) was 6.99 µM and the IC50 (second compound 10 µM) was 2.88 µM. It also gave a viability, T/C [1] of 115%, a viability, T/C [2] of 96.5% and a viability, T/C [3] of 93%. For the same compound, the viability, T/C [4] was 93.4%, the viability, T/C [5] was 56.9% and the viability, T/C [6] was 32.6%. The viability, T/C [7] was 93.9%, the viability, T/C [8] was 104% and the viability, T/C [9] was 94.3%. For the same compound, the viability, T/C [10] was 94.7%, the viability, T/C [11] was 63.1% and the viability, T/C [12] was 34.7%. The viability, T/C [13] was 101%, the viability, T/C [14] was 97.6% and the viability, T/C [15] was 93.8%. It also gave a viability, T/C [16] of 97.3%, a viability, T/C [17] of 62.3% and a viability, T/C [18] of 43.7%. The viability, T/C [19] was 108%, the viability, T/C [20] was 101% and the viability, T/C [21] was 90.9%. For the same compound, the viability, T/C [22] was 84.7%, the viability, T/C [23] was 59.9% and the viability, T/C [24] was 36.5%. It also gave a viability, T/C [25] of 87.5%, a viability, T/C [26] of 95.3% and a viability, T/C [27] of 87.4%. The viability, T/C [28] was 83%, the viability, T/C [29] was 68.8% and the viability, T/C [30] was 41.6%. For the same compound, the viability, T/C [31] was 96.5%, the viability, T/C [32] was 91.5% and the viability, T/C [33] was 78.2%. For the same compound, the viability, T/C [34] was 92.1%, the viability, T/C [35] was 46.5% and the viability, T/C [36] was 35.5%.

Work on Nc1ccn(C2OC(CO)C(O)C2(F)F)c(=O)n1 (centres undefined) + Nc1ccc(C#CCN(C(=O)Cc2ncc(C(F)(F)F)cc2C(F)(F)F)c2ccc(F)cc2)nn1 yielded an IC50 (second compound 0.0316 µM) of under 0.0316 µM, an IC50 (second compound 0.1 µM) of under 0.0316 µM and an IC50 (second compound 0.316 µM) of under 0.0316 µM. It also gave an IC50 (second compound 1 µM) of under 0.0316 µM, an IC50 (second compound 3.16 µM) of under 0.0316 µM and an IC50 (second compound 10 µM) of under 0.0316 µM. The viability, T/C [1] was 22.1%, the viability, T/C [2] was 17.1% and the viability, T/C [3] was 10.8%. For the same compound, the viability, T/C [4] was 10.9%, the viability, T/C [5] was 14.9% and the viability, T/C [6] was 16.1%. The viability, T/C [7] was 27.7%, the viability, T/C [8] was 15.5% and the viability, T/C [9] was 12.6%. It also gave a viability, T/C [10] of 12.6%, a viability, T/C [11] of 12.6% and a viability, T/C [12] of 12.6%. The viability, T/C [13] was 28.6%, the viability, T/C [14] was 24.1% and the viability, T/C [15] was 10.9%. It also gave a viability, T/C [16] of 13.3%, a viability, T/C [17] of 12.6% and a viability, T/C [18] of 13.8%. It also gave a viability, T/C [19] of 22.7%, a viability, T/C [20] of 15.2% and a viability, T/C [21] of 11.2%. The viability, T/C [22] was 12.6%, the viability, T/C [23] was 13.1% and the viability, T/C [24] was 13.3%. The viability, T/C [25] was 23.6%, the viability, T/C [26] was 19.6% and the viability, T/C [27] was 12%. It also gave a viability, T/C [28] of 10.3%, a viability, T/C [29] of 13.6% and a viability, T/C [30] of 13.9%. For the same compound, the viability, T/C [31] was 26.8%, the viability, T/C [32] was 20.3% and the viability, T/C [33] was 12.2%. It also gave a viability, T/C [34] of 12.6%, a viability, T/C [35] of 11.3% and a viability, T/C [36] of 12.2%.
